Here are results for 19 compounds from patent US20240043427A1 (Gilead Sciences, Inc., priority 2020, published 2024).

The target of one assay is T1, CD73 (Homo sapiens (Human), UniProt P21589).
T1 sequence (P21589 27-574): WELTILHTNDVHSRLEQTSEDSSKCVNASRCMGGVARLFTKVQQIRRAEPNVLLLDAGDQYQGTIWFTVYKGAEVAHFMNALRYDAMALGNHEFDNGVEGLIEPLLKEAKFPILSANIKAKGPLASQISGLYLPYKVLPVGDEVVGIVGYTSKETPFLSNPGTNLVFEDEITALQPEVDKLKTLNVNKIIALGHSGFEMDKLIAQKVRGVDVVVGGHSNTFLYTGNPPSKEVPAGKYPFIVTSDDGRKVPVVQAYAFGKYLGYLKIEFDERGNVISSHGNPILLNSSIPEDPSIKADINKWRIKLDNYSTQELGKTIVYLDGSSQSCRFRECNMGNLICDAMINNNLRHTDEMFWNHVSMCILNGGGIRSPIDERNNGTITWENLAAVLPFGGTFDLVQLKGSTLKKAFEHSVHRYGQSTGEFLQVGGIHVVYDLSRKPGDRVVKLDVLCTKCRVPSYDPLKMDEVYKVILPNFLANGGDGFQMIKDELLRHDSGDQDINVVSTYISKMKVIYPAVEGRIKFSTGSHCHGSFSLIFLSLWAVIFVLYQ
Experiment: not given
Type of assay: biochemical. The settings on record: 1 mM NaH2PO4 in enzyme buffer, CD73 0.3 nM, AMP 15 uM.
The term IC50 denotes the concentration needed to halve the response being measured. A higher IC50 goes with a need for much substance. The compound `O=c1[nH]cc(-c2cc([C@@H]3C[C@H]3c3cc(F)c(F)c(F)c3)c3nccn3n2)c(=O)[nH]1` (racemic) [Example 36] returned an IC50 of 2.72 nM. In the case of `CC(C)n1ncc2ccc([C@H]3C[C@@H]3c3cc(-c4c[nH]c(=O)[nH]c4=O)nn4ccnc34)cc21` (racemic) [Example 119, 5-(8-((1S,2S)-2-(1-isopropyl-1H-indazol-6-yl)cyclopropyl)imidazo[1,2-b]pyridazin-6-yl)pyrimidine-2,4(1H,3H)-dione and 5-(8-((1R,2R)-2-(1-isopropyl-1H-indazol-6-yl)cyclopropyl)imidazo[1,2-b]pyridazin-6-yl)pyrimidine-2,4(1H,3H)-dione], 0.56 nM corresponded to half-maximal inhibition (IC50). In the case of `CC1(C)C(=O)N(CC(F)(F)F)c2cc([C@H]3C[C@@H]3c3cc(-c4c[nH]c(=O)[nH]c4=O)nn4ccnc34)ncc21` (racemic) [Example 718, 5-[8-[(1S,2S)-2-[3,3-dimethyl-2-oxo-1-(2,2,2-trifluoroethyl)pyrrolo[3,2-c]pyridin-6-yl]cyclopropyl]imidazo[1,2-b]pyridazin-6-yl]-1H-pyrimidine-2,4-dione], the 50% inhibitory concentration (IC50) came to 3.07 nM. `O=c1[nH]cc(-c2cc([C@H]3C[C@@H]3c3cc(OCC(F)(F)F)c4ncccc4c3)c3nccn3n2)c(=O)[nH]1` (racemic) [Example 732, 5-(8-((1S,2S)-2-(8-(2,2,2-trifluoroethoxy)quinolin-6-yl)cyclopropyl)imidazo[1,2-b]pyridazin-6-yl)pyrimidine-2,4(1H,3H)-dione] came in with a 50% inhibitory concentration (IC50) of 2.66 nM. Consider `O=C1N(CC2(F)CC2)c2cc([C@H]3C[C@@H]3c3cc(-c4c[nH]c(=O)[nH]c4=O)nn4c(F)cnc34)ccc2C12CC2` (racemic) [Example 735, 5-(3-fluoro-8-((1S,2S)-2-(1′-((1-fluorocyclopropyl)methyl)-2′-oxospiro[cyclopropane-1,3′-indolin]-6′-yl)cyclopropyl)imidazo[1,2-b]pyridazin-6-yl)pyrimidine-2,4(1H,3H)-dione], for which the midpoint of inhibition, the IC50, lay at 2.94 nM. As for `O=C1N(CC(F)(F)F)c2cc([C@H]3C[C@@H]3c3cc(-c4c[nH]c(=O)[nH]c4=O)nn4ccnc34)c(F)cc2C12CC2` (racemic) [Example 748, 5-(8-((1S,2S)-2-(5′-fluoro-2′-oxo-1′-(2,2,2-trifluoroethyl)spiro[cyclopropane-1,3′-indolin]-6′-yl)cyclopropyl)imidazo[1,2-b]pyridazin-6-yl)pyrimidine-2,4(1H,3H)-dione], half-maximal inhibition (IC50) required 2.5 nM. `O=C1N(CC(F)(F)F)c2cc([C@H]3C[C@@H]3c3cc(-c4c[nH]c(=O)[nH]c4=O)nn4ccnc34)ccc2C12CC2` (single isomer, unassigned) [Example 391]: half-maximal inhibition (IC50) was put at 1.01 nM. With `O=C(c1ccc([C@H]2C[C@@H]2c2cc(-c3c[nH]c(=O)[nH]c3=O)nn3c(F)cnc23)cc1)N1CC(F)(F)C1` [Example 313, 5-(8-((1S,2S)-2-(4-(3,3-difluoroazetidine-1-carbonyl)phenyl)cyclopropyl)-3-fluoroimidazo[1,2-b]pyridazin-6-yl)pyrimidine-2,4(1H,3H)-dione], half-maximal inhibition (IC50) was put at 2.35 nM. `O=c1[nH]cc(-c2cc([C@H]3C[C@@H]3c3cnn(C(F)F)c3)c3ncc(F)n3n2)c(=O)[nH]1` [Example 371, 5-(8-((1S,2S)-2-(1-(difluoromethyl)-1H-pyrazol-4-yl)cyclopropyl)-3-fluoroimidazo[1,2-b]pyridazin-6-yl)pyrimidine-2,4(1H,3H)-dione]: half-maximal inhibition (IC50) required 4.95 nM. As to `O=c1[nH]cc(-c2cc([C@H]3C[C@@H]3c3ccc(OC(F)(F)F)cn3)c3nccn3n2)c(=O)[nH]1` [Example 373, 5-(8-((1S,2S)-2-(5-(trifluoromethoxy)pyridin-2-yl)cyclopropyl)imidazo[1,2-b]pyridazin-6-yl)pyrimidine-2,4(1H,3H)-dione], inhibition was half-maximal at 2.56 nM (IC50).

For `O=c1[nH]cc(-c2cc([C@H]3C[C@@H]3c3cc4c(cn3)cnn4CC(F)(F)F)c3ncc(F)n3n2)c(=O)[nH]1` [Example 611, 5-(3-fluoro-8-((1S,2S)-2-(1-(2,2,2-trifluoroethyl)-1H-pyrazolo[4,3-c]pyridin-6-yl)cyclopropyl)imidazo[1,2-b]pyridazin-6-yl)pyrimidine-2,4(1H,3H)-dione], half-maximal inhibition (IC50) was put at 0.4 nM.

In turn, `O=c1[nH]cc(-c2cc([C@H]3C[C@@H]3c3cc4c(cnn4CC(F)(F)F)cc3F)c3ncc(F)n3n2)c(=O)[nH]1` [Example 613, 5-(3-fluoro-8-((1S,2S)-2-(5-fluoro-1-(2,2,2-trifluoroethyl)-1H-indazol-6-yl)cyclopropyl)imidazo[1,2-b]pyridazin-6-yl)pyrimidine-2,4(1H,3H)-dione] registered an IC50 of 0.58 nM. In turn, `O=C1N(CC(F)(F)F)c2cc([C@H]3C[C@@H]3c3cc(-c4c[nH]c(=O)[nH]c4=O)nn4c(Cl)cnc34)ccc2C12CC2` [Example 740, 5-(3-chloro-8-((1S,2S)-2-(2′-oxo-1′-(2,2,2-trifluoroethyl)spiro[cyclopropane-1,3′-indolin]-6′-yl)cyclopropyl)imidazo[1,2-b]pyridazin-6-yl)pyrimidine-2,4(1H,3H)-dione] yielded an IC50 of 0.61 nM. As to `O=C1N(CC(F)(F)F)c2cc([C@H]3C[C@@H]3c3cc(-c4c[nH]c(=O)[nH]c4=O)nn4c(Cl)c(Cl)nc34)ccc2C12CC2` [Example 741, 5-(2,3-dichloro-8-((1S,2S)-2-(2′-oxo-1′-(2,2,2-trifluoroethyl)spiro[cyclopropane-1,3′-indolin]-6′-yl)cyclopropyl)imidazo[1,2-b]pyridazin-6-yl)pyrimidine-2,4(1H,3H)-dione], the half-inhibitory concentration (IC50) was determined as 0.49 nM.

The target in another assay is T1, CD73. The assay is described as follows: MDA-MB-231 Cell Based CD73 Activity Assay (DMEM). The settings on record: MDA-MB-231-GFP cells, DMEM medium with 10% human plasma, 200 uM AMP. The method, then: MDA-MB-231 Cell Based CD73 Activity Assay (DMEM) MDA-MB-231-GFP cells were seeded in 384-well plates (Greiner 781946) at a density of 3000 cells per well in 50 μL of DMEM medium with 10% HP (human plasma). Cells were plated into assay plate with compounds pre-spotted, for an overnight compound treatment. 50 uL of 400 uM AMP (final concentration will be 200 uM) was added using Bio-tek dispenser. Plates were incubated for 100 mins. […] The samples were analyzed using Rapid fire.
By EC50 is commonly meant the concentration needed to bring the measured effect to its halfway point. Take `O=c1[nH]cc(-c2cc([C@@H]3C[C@H]3c3cc(F)c(F)c(F)c3)c3nccn3n2)c(=O)[nH]1` (racemic) [Example 36]: the 50% effective concentration (EC50) was 2.53 nM. Take `CC(C)n1ncc2ccc([C@H]3C[C@@H]3c3cc(-c4c[nH]c(=O)[nH]c4=O)nn4ccnc34)cc21` (racemic) [Example 119, 5-(8-((1S,2S)-2-(1-isopropyl-1H-indazol-6-yl)cyclopropyl)imidazo[1,2-b]pyridazin-6-yl)pyrimidine-2,4(1H,3H)-dione and 5-(8-((1R,2R)-2-(1-isopropyl-1H-indazol-6-yl)cyclopropyl)imidazo[1,2-b]pyridazin-6-yl)pyrimidine-2,4(1H,3H)-dione]: a half-maximal response (EC50) required 1.09 nM.

`O=c1[nH]cc(-c2cc(N3CCC4(C3)CC4(F)F)c3nccn3n2)c(=O)[nH]1` (stereo not drawn) [Example 192] came in with a concentration giving a half-maximal response (EC50) of 20.9 nM. In turn, `O=c1[nH]cc(-c2cc(N3CC4CC(F)(C4)C3)c3nccn3n2)c(=O)[nH]1` [Example 579, 5-(8-(1-fluoro-3-azabicyclo[3.1.1]heptan-3-yl)imidazo[1,2-b]pyridazin-6-yl)pyrimidine-2,4(1H,3H)-dione] yielded an EC50 of 111 nM. As for `O=c1[nH]cc(-c2cc([C@H]3C[C@@H]3c3ccc4cnn(CC(F)(F)F)c4c3F)c3ncc(F)n3n2)c(=O)[nH]1` [Example 630, 5-(3-fluoro-8-((1S,2S)-2-(7-fluoro-1-(2,2,2-trifluoroethyl)-1H-indazol-6-yl)cyclopropyl)imidazo[1,2-b]pyridazin-6-yl)pyrimidine-2,4(1H,3H)-dione], the response was half-maximal at 0.08 nM (EC50). `CC(C)(C)COc1cc(-c2c[nH]c(=O)[nH]c2=O)nn2ccnc12` [Example 679, 5-(8-(neopentyloxy)imidazo[1,2-b]pyridazin-6-yl)pyrimidine-2,4(1H,3H)-dione] came in with an EC50 of 124 nM. With `CC(C)NC(=O)O[C@H]1CN(c2cc(-c3c[nH]c(=O)[nH]c3=O)nc3ccnn23)CC1(F)F` [Example 713, (S)-1-(5-(2,4-dioxo-1,2,3,4-tetrahydropyrimidin-5-yl)pyrazolo[1,5-a]pyrimidin-7-yl)-4,4-difluoropyrrolidin-3-yl isopropylcarbamate], the EC50 turned out to be 0.39 nM.
